Legend:
[1] = according to Eisenburg et al., Faraday Symp. Chem. Soc. 17:109-120 (1982); cited from earlier work
[2] = Wettability (wetting time), method of International IDF Standard 87:1979; type: physicochemical; conditions: for effect of coating on the wetting time: FIG. 1, coated versus uncoated amino acid; for wetting time: amino acid not coated
Source text: The wettability (wetting time) can be determined using the method of International IDF Standard 87:1979.

effect of coating on the wetting time [2] | wetting time [2] | Compound | Hydrophobicity of amino acids (side chain hydrophobicity, SCH) [1]
– | – | C[C@@H](O)[C@H](N)C(=O)O [Thr, threonine] | -0.179 kcal/mol
– | – | N[C@@H](CS)C(=O)O [Cys, cysteine] | +0.17 kJ/mol
– | – | N[C@@H](Cc1ccccc1)C(=O)O [Phe, phenylalanine] | +2.5 kJ/mol
– | – | N[C@@H](Cc1c[nH]cn1)C(=O)O [His] | -0.406 kcal/mol
no or only a minor effect | short wetting time | C[C@H](N)C(=O)O [Ala] | +1.0 kJ/mol
– | – | N[C@@H](CCC(=O)O)C(=O)O [Glu] | -0.621 kcal/mol
– | – | CC[C@H](C)[C@H](N)C(=O)O [Ile, isoleucine] | +3.1 kJ/mol
– | – | NC(=O)C[C@H](N)C(=O)O [Asn] | -0.645 kcal/mol
– | – | N[C@@H](CC(=O)O)C(=O)O [Asp] | -0.717 kcal/mol
– | – | N=C(N)NCCC[C@H](N)C(=O)O [Arg] | -1.79 kcal/mol
– | – | CSCC[C@H](N)C(=O)O [Met, methionine] | +1.1 kJ/mol
– | – | NCCCC[C@H](N)C(=O)O [Lys, lysine] | -1.1 kcal/mol
– | – | N[C@@H](CO)C(=O)O [Ser] | -0.263 kcal/mol
no or only a minor effect | short wetting time | N[C@@H](Cc1ccc(O)cc1)C(=O)O [Tyr] | +0.08 kJ/mol
– | – | O=C(O)[C@@H]1CCCN1 [Pro] | -0.0693 kcal/mol
– | – | CC(C)[C@H](N)C(=O)O [Val, valine] | +2.3 kJ/mol
– | – | N[C@@H](Cc1c[nH]c2ccccc12)C(=O)O [Trp, tryptophan] | +1.5 kJ/mol
– | short wetting time | NCC(=O)O [Gly, glycine] | +0.67 kJ/mol
